Experimental data taken from ChEMBL document CHEMBL1201862, “PubChem BioAssay data set” (2004).
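Cultured in 96-well plates, cells were exposed to test compound for 48 hours across five concentrations. At the GI50, growth is halved.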 Activity calls are given as the source filed them. No stated cut-off is given here; in the data, active = GI50 up to about 1.1 µM and inactive = higher.

What was measured:
Assay in all cases: NCI anticancer screen, dose series, 48 h
HCC 2998 = system: HCC 2998
DU-145 = system: DU-145
BT-549 = system: BT-549
PC-3 = system: PC-3
MCF7 = system: MCF7
NCI-H226 = system: NCI-H226
IGROV-1 = system: IGROV-1
RPMI-8226 = system: RPMI-8226
Hs-578T = system: Hs-578T
SK-MEL-5 = system: SK-MEL-5
NCI/ADR-RES = system: NCI/ADR-RES
SF-268 = system: SF-268
SK-OV-3 = system: SK-OV-3
Malme-3M = system: Malme-3M
NCI-H23 = system: NCI-H23
A498 = system: A498
HOP-62 = system: HOP-62
UACC-257 = system: UACC-257
A549 = system: A549
CAKI-1 = system: CAKI-1

Structure (SMILES) | GI50 (HCC 2998) | GI50 (DU-145) | GI50 (BT-549) | GI50 (PC-3) | GI50 (MCF7) | GI50 (NCI-H226) | GI50 (IGROV-1) | GI50 (RPMI-8226) | GI50 (Hs-578T) | GI50 (SK-MEL-5) | GI50 (NCI/ADR-RES) | GI50 (SF-268) | GI50 (SK-OV-3) | GI50 (Malme-3M) | GI50 (NCI-H23) | GI50 (A498) | GI50 (HOP-62) | GI50 (UACC-257) | GI50 (A549) | GI50 (CAKI-1)
C#CCOCC12C=CC(O1)C1C(=O)OCC12 (stereo not given) | > 100 µM (inactive) | > 100 µM (inactive) | > 100 µM (inactive) | > 100 µM (inactive) | > 100 µM (inactive) | > 100 µM (inactive) | > 100 µM (inactive) | > 100 µM (inactive) | > 100 µM (inactive) | > 100 µM (inactive) | > 100 µM (inactive) | > 100 µM (inactive) | > 100 µM (inactive) | > 100 µM (inactive) | > 100 µM (inactive) | > 100 µM (inactive) | > 100 µM (inactive) | > 100 µM (inactive) | > 100 µM (inactive) | > 100 µM (inactive)
C[C@]12CC[C@H]3[C@@H](CCC4=CC(=O)CC[C@@]43C)[C@@H]1CC[C@@H]2C(=O)Nc1ccc([N+](=O)[O-])c(C(F)(F)F)c1 | 12.9 µM (inactive) | 20.7 µM (inactive) | 19.4 µM (inactive) | 19.6 µM (inactive) | 16.3 µM (inactive) | 21.2 µM (inactive) | 22.8 µM (inactive) | 56.1 µM (inactive) | 18.2 µM (inactive) | 14.3 µM (inactive) | 13.3 µM (inactive) | 21.4 µM (inactive) | 12.7 µM (inactive) | 15.6 µM (inactive) | > 10 µM (inactive) | 17.6 µM (inactive) | 29 µM (inactive) | > 10 µM (inactive) | 17.9 µM (inactive) | 18.7 µM (inactive)
C#C[C@]1(O)CC[C@H]2[C@@H]3CCC4=C/C(=N/OC(=O)c5cccc6c(=O)c7ccccc7[nH]c56)CCC4[C@H]3CC[C@@]21CC (stereo not given in full) | 26.5 µM (inactive) | 55.2 µM (inactive) | 17 µM (inactive) | 18.5 µM (inactive) | 25.1 µM (inactive) | > 48.9 µM (inactive) | 27.3 µM (inactive) | 1.37 µM (inactive) | > 100 µM (inactive) | 14.9 µM (inactive) | 15.8 µM (inactive) | 66.4 µM (inactive) | 63.1 µM (inactive) | 34.7 µM (inactive) | 26.4 µM (inactive) | 10.1 µM (inactive) | 49.1 µM (inactive) | 11.3 µM (inactive) | 41.7 µM (inactive) | 32.4 µM (inactive)
CC(C)/C(Cl)=N\OC(=O)Nc1ccc(F)cc1F | 18.3 µM (inactive) | 17.8 µM (inactive) | 13 µM (inactive) | 17.2 µM (inactive) | 3.43 µM (inactive) | 15.8 µM (inactive) | 16 µM (inactive) | 4.69 µM (inactive) | 23.3 µM (inactive) | 14.3 µM (inactive) | 7.05 µM (inactive) | 19.5 µM (inactive) | 17.1 µM (inactive) | 1.66 µM (inactive) | 14.3 µM (inactive) | 17 µM (inactive) | 17.6 µM (inactive) | 14.1 µM (inactive) | 18.4 µM (inactive) | 19.3 µM (inactive)
O=C(O)CC(NC(=O)/C(=C/c1ccccc1)NC(=O)c1ccccc1)C(=O)O (stereo not given) | > 100 µM (inactive) | > 100 µM (inactive) | > 100 µM (inactive) | > 100 µM (inactive) | > 100 µM (inactive) | > 100 µM (inactive) | > 100 µM (inactive) | > 100 µM (inactive) | > 100 µM (inactive) | > 100 µM (inactive) | > 100 µM (inactive) | > 100 µM (inactive) | > 100 µM (inactive) | > 100 µM (inactive) | > 100 µM (inactive) | > 100 µM (inactive) | > 100 µM (inactive) | > 100 µM (inactive) | > 100 µM (inactive) | > 100 µM (inactive)
CCOC(=O)N1C/C(=C\c2ccccc2)C(=O)/C(=C/c2ccccc2)C1 | 1.94 µM (inactive) | 8.81 µM (inactive) | 2.3 µM (inactive) | 2.16 µM (inactive) | 0.955 µM (active) | 4.56 µM (inactive) | 5.02 µM (inactive) | 0.182 µM (active) | 2.4 µM (inactive) | 2.97 µM (inactive) | 9.12 µM (inactive) | 4.17 µM (inactive) | 9.2 µM (inactive) | 7.36 µM (inactive) | 5.31 µM (inactive) | 18 µM (inactive) | 4.41 µM (inactive) | 4.46 µM (inactive) | 12.3 µM (inactive) | 2.22 µM (inactive)
Cc1cn(C2CC(N=[N+]=[N-])C(C(=O)O)O2)c(=O)[nH]c1=O (stereo not given) | > 100 µM (inactive) | > 100 µM (inactive) | > 100 µM (inactive) | > 100 µM (inactive) | > 100 µM (inactive) | > 100 µM (inactive) | > 100 µM (inactive) | > 100 µM (inactive) | > 100 µM (inactive) | < 0.01 µM (active) | > 100 µM (inactive) | > 100 µM (inactive) | > 100 µM (inactive) | > 100 µM (inactive) | > 100 µM (inactive) | > 100 µM (inactive) | > 100 µM (inactive) | > 100 µM (inactive) | > 100 µM (inactive) | > 100 µM (inactive)
Cc1cc(C)nc(NS(=O)(=O)c2ccc(Nc3c4ccccc4nc4ccc(C(=O)Nc5ccc(S(N)(=O)=O)cc5)cc34)cc2)n1 | > 100 µM (inactive) | > 100 µM (inactive) | 24.9 µM (inactive) | > 100 µM (inactive) | > 100 µM (inactive) | > 100 µM (inactive) | > 100 µM (inactive) | 77.4 µM (inactive) | > 100 µM (inactive) | 72.6 µM (inactive) | 69.3 µM (inactive) | > 100 µM (inactive) | > 100 µM (inactive) | > 100 µM (inactive) | > 100 µM (inactive) | > 100 µM (inactive) | > 100 µM (inactive) | > 100 µM (inactive) | > 100 µM (inactive) | > 100 µM (inactive)
CC(C)CCNC(=O)c1ccc(CNC(=O)/C=C/c2cccc(Oc3ccccc3)c2)cc1 | 26.9 µM (inactive) | 70.3 µM (inactive) | 60.1 µM (inactive) | 46.2 µM (inactive) | 36.5 µM (inactive) | 47.4 µM (inactive) | 67.5 µM (inactive) | 67.9 µM (inactive) | > 100 µM (inactive) | 51.2 µM (inactive) | 37.2 µM (inactive) | 37.3 µM (inactive) | 33.1 µM (inactive) | > 100 µM (inactive) | 34.3 µM (inactive) | 30.8 µM (inactive) | 18.7 µM (inactive) | 23.2 µM (inactive) | 42.6 µM (inactive) | 47.1 µM (inactive)
NS(=O)(=O)c1ccc(/N=N/c2nc3[nH]cnc(=S)c3[nH]2)cc1 | 0.682 µM (active) | 0.638 µM (active) | 1.3 µM (inactive) | 3.73 µM (inactive) | 0.944 µM (active) | 4.65 µM (inactive) | 7.29 µM (inactive) | 0.31 µM (active) | 6.41 µM (inactive) | 5.36 µM (inactive) | 0.365 µM (active) | 0.885 µM (active) | 0.411 µM (active) | 1.93 µM (inactive) | 1.74 µM (inactive) | 23 µM (inactive) | 0.564 µM (active) | 2.94 µM (inactive) | 4.93 µM (inactive) | 1.42 µM (inactive)
CCCCCCCCCCCCCCCC(=O)Nc1ccn(C2CCC(COP(=O)(O)OCC3OC(n4cc(F)c(=O)[nH]c4=O)CC3OC(C)=O)O2)c(=O)n1 (stereo not given) | 3.01 µM (inactive) | 9.25 µM (inactive) | 2.39 µM (inactive) | 15.5 µM (inactive) | 2.28 µM (inactive) | 30 µM (inactive) | 20.5 µM (inactive) | 2.88 µM (inactive) | 29.2 µM (inactive) | 13.5 µM (inactive) | 16.7 µM (inactive) | 1.45 µM (inactive) | 29.2 µM (inactive) | 15.6 µM (inactive) | 8.18 µM (inactive) | 11.3 µM (inactive) | 5.06 µM (inactive) | 14.7 µM (inactive) | 1.67 µM (inactive) | 4.44 µM (inactive)
C[C@H](CCC(=O)O)[C@H]1CC[C@@]2(C)[C@@H]3C(=O)C[C@H]4C(C)(C)[C@@H](O)CC[C@]4(C)[C@H]3C(=O)C[C@]12C | > 100 µM (inactive) | > 100 µM (inactive) | > 100 µM (inactive) | > 100 µM (inactive) | > 100 µM (inactive) | > 100 µM (inactive) | > 100 µM (inactive) | > 100 µM (inactive) | 41.8 µM (inactive) | > 100 µM (inactive) | > 100 µM (inactive) | > 100 µM (inactive) | > 100 µM (inactive) | > 100 µM (inactive) | > 100 µM (inactive) | > 100 µM (inactive) | > 100 µM (inactive) | > 100 µM (inactive) | > 100 µM (inactive) | > 100 µM (inactive)
Cn1c(=O)cc(NNc2ccccc2)[nH]c1=O | > 100 µM (inactive) | 54.2 µM (inactive) | > 100 µM (inactive) | > 100 µM (inactive) | 1.78 µM (inactive) | > 100 µM (inactive) | 25.4 µM (inactive) | 17.1 µM (inactive) | > 100 µM (inactive) | > 100 µM (inactive) | > 100 µM (inactive) | 44.3 µM (inactive) | > 100 µM (inactive) | 19.9 µM (inactive) | > 100 µM (inactive) | > 100 µM (inactive) | > 100 µM (inactive) | 48.3 µM (inactive) | > 100 µM (inactive) | 15.6 µM (inactive)
